According to US20230167073A1 (Teijin Pharma Limited, priority 2020, published 2023):

Each compound was assayed against T1, Human TRPC6 (Homo sapiens, UniProt Q9Y210) (assay: Evaluation of TRPC6 channel inhibitory activity (1), FLIPR Calcium 5 Assay Kit, OAG stimulation (Compound Nos. 1-1293)). Conditions: not given.
T1 construct: expressed in transfected cells
T1 sequence (Q9Y210 1-931): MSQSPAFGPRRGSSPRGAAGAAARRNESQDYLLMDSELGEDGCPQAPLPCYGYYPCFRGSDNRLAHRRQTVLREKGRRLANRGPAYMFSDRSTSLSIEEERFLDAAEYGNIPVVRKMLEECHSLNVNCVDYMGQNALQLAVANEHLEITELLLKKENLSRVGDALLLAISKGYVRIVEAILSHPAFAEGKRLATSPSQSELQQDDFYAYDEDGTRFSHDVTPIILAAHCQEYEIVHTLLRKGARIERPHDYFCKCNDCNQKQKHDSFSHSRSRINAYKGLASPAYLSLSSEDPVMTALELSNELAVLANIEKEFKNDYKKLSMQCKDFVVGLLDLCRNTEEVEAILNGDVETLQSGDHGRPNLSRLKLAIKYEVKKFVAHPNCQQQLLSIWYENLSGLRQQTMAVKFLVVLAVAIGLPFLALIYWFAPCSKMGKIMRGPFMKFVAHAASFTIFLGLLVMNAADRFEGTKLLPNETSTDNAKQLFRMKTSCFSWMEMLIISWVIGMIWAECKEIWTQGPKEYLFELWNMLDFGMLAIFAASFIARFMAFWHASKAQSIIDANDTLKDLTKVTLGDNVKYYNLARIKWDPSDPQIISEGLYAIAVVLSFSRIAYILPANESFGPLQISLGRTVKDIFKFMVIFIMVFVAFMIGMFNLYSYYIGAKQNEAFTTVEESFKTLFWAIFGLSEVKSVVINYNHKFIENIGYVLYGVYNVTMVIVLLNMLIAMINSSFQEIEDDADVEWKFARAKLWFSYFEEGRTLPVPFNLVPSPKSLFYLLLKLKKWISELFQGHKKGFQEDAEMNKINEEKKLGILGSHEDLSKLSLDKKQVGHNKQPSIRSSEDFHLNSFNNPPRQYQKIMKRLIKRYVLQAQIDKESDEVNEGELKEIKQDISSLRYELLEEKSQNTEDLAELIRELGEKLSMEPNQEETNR
Type: cell-based
In short: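 Readout is pIC50 from four-parameter logistic fitting of inhibition of the OAG-evoked (30 μM final) fluorescence calcium signal. Human TRPC6 stable cells are dye-loaded with probenecid, and compound is applied 20 min ahead of agonist.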

`Cn1nc(N2C3CCC2COC3)cc1Oc1cc(C#N)ccc1-c1ncc(CN)cn1` [compound 944, 4-[5-(aminomethyl)pyrimidin-2-yl]-3-[2-methyl-5-(3-oxa-8-azabicyclo[3.2.1]octan-8-yl)pyrazol-3-yl]oxybenzonitrile] showed an IC50 of 10 to 1000 nM.

Same assay, conditions: Human TRPC6 stably-expressing cells, OAG 30 μM, FLIPR Calcium 5 Assay Kit; read-out: Inhibitory activity (pIC50 class) (converted)

First: Cc1nc(Oc2cc(C#N)ccc2-c2ccc(CCN)cc2)cc(-c2cscn2)n1 [Compound 30, 4-[4-(2-aminoethyl)phenyl]-3-[2-methyl-6-(1,3-thiazol-4-yl)pyrimidin-4-yl]oxybenzonitrile]
Second: Cc1nc(OCC(C)(C)C)cc(Oc2cc(C#N)ccc2-c2ccc(CCN)cc2)n1 [Compound 47, 4-[4-(2-Aminoethyl)phenyl]-3-[6-(2,2-dimethylpropoxy)-2-methylpyrimidin-4-yl]oxybenzonitrile]
The IC50 of the first is lower: under 10 nM for the first, 10 to 1000 nM for the second.

First: Cc1nc(Oc2cc(C#N)ccc2-n2cc(C(O)CN(C)C)cn2)cc(N2CCOCC2)n1 (stereo not shown) [Compound 105, 4-[4-[2-(dimethylamino)-1-hydroxyethyl]pyrazol-1-yl]-3-(2-methyl-6-morpholin-4-ylpyrimidin-4-yl)oxybenzonitrile]
Second: Cc1nc(Oc2cc(C#N)ccc2-n2cc(CN)cn2)cc(N2CCOCC2)n1 [compound 298, 4-[4-(aminomethyl)pyrazol-1-yl]-3-(2-methyl-6-morpholin-4-ylpyrimidin-4-yl)oxybenzonitrile]
The IC50 of the first is higher: over 1000 nM for the first, 10 to 1000 nM for the second.

`COc1cccnc1-c1cc(Oc2cc(C#N)ccc2-c2ccc([C@H](O)CN)cn2)cc(C)n1` [compound 513, 4-[5-[(1S)-2-amino-1-hydroxyethyl]pyridin-2-yl]-3-[2-(3-methoxypyridin-2-yl)-6-methylpyridin-4-yl]oxybenzonitrile] and `CN(C)c1cc(Oc2cc(C#N)ccc2-c2ccc([C@H](O)CN)cn2)n(C)n1` [compound 546, 4-[5-[(1S)-2-amino-1-hydroxyethyl]pyridin-2-yl]-3-[5-(dimethylamino)-2-methylpyrazol-3-yl]oxybenzonitrile] fall in the same range of IC50: 10 to 1000 nM for the first, 10 to 1000 nM for the second.

`Cn1nc(-c2ccccn2)cc1Oc1cc(C#N)ccc1-c1ccc(CN)n2ccnc12` [compound 522, 4-[5-(aminomethyl)imidazo[1,2-a]pyridin-8-yl]-3-(2-methyl-5-pyridin-2-ylpyrazol-3-yl)oxybenzonitrile] and `Cn1nc(-c2ccccn2)cc1Oc1cc(C#N)ccc1-c1ccc(CCN)nc1` [Compound 162, 4-[6-(2-aminoethyl)pyridin-3-yl]-3-(2-methyl-5-pyridin-2-ylpyrazol-3-yl)oxybenzonitrile] cannot be ordered by IC50: under 10 nM for the first, under 10 nM for the second.

Compared with `COCCOc1cc(Oc2cc(C#N)ccc2-c2ncc(CN)cn2)nc(C)n1` [compound 843, 4-[5-(aminomethyl)pyrimidin-2-yl]-3-[6-(2-methoxyethoxy)-2-methylpyrimidin-4-yl]oxybenzonitrile], `CCN(CC)c1cc(Oc2cc(C#N)ccc2-c2ncc(CN)cn2)nc(C)n1` [compound 791, 4-[5-(aminomethyl)pyrimidin-2-yl]-3-[6-(diethylamino)-2-methylpyrimidin-4-yl]oxybenzonitrile] is lower in IC50: over 1000 nM for the first, 10 to 1000 nM for the second.

`N#Cc1ccc(-c2ncc(CN)cn2)c(Oc2cnnc(C3CC3)c2)c1` [compound 713, 4-[5-(aminomethyl)pyrimidin-2-yl]-3-(6-cyclopropylpyridazin-4-yl)oxybenzonitrile] and `N#Cc1ccc(-c2ncc(CN)cn2)c(Cn2cc(C3CC3)nn2)c1` [compound 1191, 4-[5-(aminomethyl)pyrimidin-2-yl]-3-[(4-cyclopropyltriazol-1-yl)methyl]benzonitrile] fall in the same range of IC50: 10 to 1000 nM for the first, 10 to 1000 nM for the second.

`N#Cc1ccc(-c2ncc(CCN)cn2)c(Oc2nnc(-c3cccnc3)s2)c1` [compound 729, 4-[5-(2-aminoethyl)pyrimidin-2-yl]-3-[(5-pyridin-3-yl-1,3,4-thiadiazol-2-yl)oxy]benzonitrile] and `Cc1nn(CC(F)F)cc1Oc1cc(C#N)ccc1-c1ncc(CCN)cn1` [compound 924, 4-[5-(2-aminoethyl)pyrimidin-2-yl]-3-[1-(2,2-difluoroethyl)-3-methylpyrazol-4-yl]oxybenzonitrile] fall in the same range of IC50: 10 to 1000 nM for the first, 10 to 1000 nM for the second.

`Cc1cc(Oc2cc(C#N)ccc2-c2ncc([C@H](O)CN)cn2)cc(N2CCOCC2)n1` [compound 430, 4-[5-[(1S)-2-amino-1-hydroxyethyl]pyrimidin-2-yl]-3-(2-methyl-6-morpholin-4-ylpyridin-4-yl)oxybenzonitrile] and `Cc1cc(Oc2cc(C#N)ccc2-c2ncc(CN)cn2)cc(N2CCOCC2)n1` [compound 328, 4-[5-(aminomethyl)pyrimidin-2-yl]-3-(2-methyl-6-morpholin-4-ylpyridin-4-yl)oxybenzonitrile] cannot be ordered by IC50: under 10 nM for the first, under 10 nM for the second.

First: Cn1nc(-c2ccccn2)cc1Oc1cc(C#N)cnc1-c1ccc(CN)cn1 [Compound No. 1289, 6-[5-(Aminomethyl)pyridin-2-yl]-5-(2-methyl-5-pyridin-2-ylpyrazol-3-yl)oxypyridine-3-carbonitrile]
Second: Cn1nc(-c2ccccc2)cc1Oc1cc(C#N)ccc1-c1ncc(C(O)CN)cn1 (stereo not shown) [Compound 248, 4-[5-(2-amino-1-hydroxyethyl)pyrimidin-2-yl]-3-(2-methyl-5-phenylpyrazol-3-yl)oxybenzonitrile]
The IC50 of the first is higher: over 1000 nM for the first, under 10 nM for the second.

Compared with `Cn1nc(C2CC2)cc1Oc1cc(C#N)ccc1-c1ccc(C(O)CN)cc1` (stereo not shown) [Compound 215, 4-[4-(2-amino-1-hydroxyethyl)phenyl]-3-(5-cyclopropyl-2-methylpyrazol-3-yl)oxybenzonitrile], `Cn1nc(-c2ccccc2)cc1Oc1cc(C#N)ccc1-c1ccc(C(N)C(=O)O)cn1` (stereo not shown) [compound 428, 2-amino-2-[6-[4-cyano-2-(2-methyl-5-phenylpyrazol-3-yl)oxyphenyl]pyridin-3-yl]acetic acid] is higher in IC50: under 10 nM for the first, 10 to 1000 nM for the second.

`Cc1nc(Sc2cc(C#N)ccc2-c2ncc(CCN)cn2)cc(N2CCCC2)n1` [compound 1256, 4-[5-(2-aminoethyl)pyrimidin-2-yl]-3-(2-methyl-6-pyrrolidin-1-ylpyrimidin-4-yl)sulfanylbenzonitrile] and `Cc1nc(Oc2cc(C#N)ccc2-c2ncc(CCN)cn2)cc(N2CCC[C@H]2C#N)n1` [compound 674, (2S)-1-[6-[2-[5-(2-aminoethyl)pyrimidin-2-yl]-5-cyanophenoxy]-2-methylpyrimidin-4-yl]pyrrolidine-2-carbonitrile] fall in the same range of IC50: 10 to 1000 nM for the first, 10 to 1000 nM for the second.

`CC(C)N(C)c1cc(Oc2cc(C#N)ccc2-c2ncc(CCN)cn2)n(C)n1` [compound 775, 4-[5-(2-aminoethyl)pyrimidin-2-yl]-3-[2-methyl-5-[methyl(propan-2-yl)amino]pyrazol-3-yl]oxybenzonitrile] and `CC(C)c1cc(Oc2cc(C#N)ccc2-c2ncc(CN)cn2)n(C)n1` [compound 364, 4-[5-(aminomethyl)pyrimidin-2-yl]-3-(2-methyl-5-propan-2-ylpyrazol-3-yl)oxybenzonitrile] cannot be ordered by IC50: under 10 nM for the first, under 10 nM for the second.

`N#Cc1ccc(-c2ccc(CCN)cc2)c(C(=O)c2cnc(N3CCOCC3)o2)c1` [compound 1081, 4-[4-(2-aminoethyl)phenyl]-3-(2-morpholin-4-yl-1,3-oxazole-5-carbonyl)benzonitrile] and `N#Cc1ccc(-c2ccc(CCN)cc2)c(Oc2cnnc(OC3CCOC3)c2)c1` (stereo not shown) [Compound 125, 4-[4-(2-aminoethyl)phenyl]-3-[6-(oxolan-3-yloxy)pyridazin-4-yl]oxybenzonitrile] fall in the same range of IC50: 10 to 1000 nM for the first, 10 to 1000 nM for the second.

`Cc1cc(Oc2cc(C#N)ccc2-c2ncc(CC(C)(C)N)cn2)cc(N2CCOCC2)n1` [compound 476, 4-[5-(2-amino-2-methylpropyl)pyrimidin-2-yl]-3-(2-methyl-6-morpholin-4-ylpyridin-4-yl)oxybenzonitrile] and `Cc1cc(Oc2cc(C#N)ccc2-c2ccc(C(F)(F)CN)cn2)cc(N2CCOCC2)n1` [compound 307, 4-[5-(2-amino-1,1-difluoroethyl)pyridin-2-yl]-3-(2-methyl-6-morpholin-4-ylpyridin-4-yl)oxybenzonitrile] fall in the same range of IC50: 10 to 1000 nM for the first, 10 to 1000 nM for the second.

First: Cc1nc(Oc2cc(C#N)ccc2-n2cc(N3CCNCC3=O)cn2)cc(C2CCCC2)n1 [Compound 208, 3-(6-Cyclopentyl-2-methylpyrimidin-4-yl)oxy-4-[4-(2-oxopiperazin-1-yl)pyrazol-1-yl]benzonitrile]
Second: N#Cc1ccc(-c2ccc(CCN)nc2)c(Oc2cnnc(-c3ccccc3)c2)c1 [Compound 102, 4-[6-(2-aminoethyl)pyridin-3-yl]-3-(6-phenylpyridazin-4-yl)oxybenzonitrile]
The IC50 of the first is higher: over 1000 nM for the first, 10 to 1000 nM for the second.
